pIC50: −log10 of the molar value.

The text below walks through data of ChEMBL document CHEMBL5143547, “Antimycobacterial and anti-inflammatory activities of thiourea derivatives focusing on treatment approaches for severe pulmonary tuberculosis” (Bioorg Med Chem, 2022).

For one data set, the system named is RAW264.7. The data set is described as follows: Inhibition of NO production in mouse RAW264.7 cells incubated for 24 hrs by Griess reagent based analysis. It is filed as functional, cell-based. The note with it: RAW264.7, 24 h. (In general: Griess reagent forms a coloured azo dye with nitrite.)
Data set [1] is described as follows: Cytotoxicity against LPS-stimulated mouse RAW264.7 cells after 24 hrs by MTT assay. It is filed as toxicity, cell-based. To be noted: LPS-stimulated RAW264.7 cells.
For data set [2], the system named is Mycobacterium tuberculosis. The data set is described as follows: Antitubercular activity against Mycobacterium tuberculosis H37Rv assessed as reduction in microbial growth after 5 days by MTT assay. Type of data set: functional. To be noted: 120 h, time 5 day.
Data set [3] is described as follows: Selectivity index, ratio of CC50 for cytotoxicity against LPS-stimulated mouse RAW264.7 cells to MIC50 for antitubercular activity against Mycobacterium tuberculosis H37Rv. To be noted: LPS-stimulated RAW264.7 cells, read-out: Selectivity Index. It is filed as toxicity, cell-based.

`S=C(NCc1ccccc1)N(c1ccccc1)c1ccccc1` gave a pIC50 in the data set with RAW264.7 not above 3.70. For the same compound, it took 67.6 µM to reach half-maximal cytotoxicity in data set [1] (CC50 at 24 h). Also, the MIC50 in data set [2] is not below 200 µM. In addition, the selectivity ratio in data set [3] amounted to 0.3.

`COc1cc(NC(=S)NC#N)cc(OC)c1OC` gave a pIC50 in the data set with RAW264.7 of 5.41. Besides, the CC50 at 24 h in data set [1] was not below 200 µM. Besides, the MIC50 in data set [2] was 184 µM. In addition, the selectivity ratio in data set [3] is more than 1.1.

The compound `S=C(NCCc1ccccc1)N1CCN(c2nc3ccccc3[nH]2)CC1` showed a pIC50 with RAW264.7 not above 3.70. This compound came in with a CC50 at 24 h in data set [1] of 33.7 µM. Moreover, the MIC50 in data set [2] came out at 20 µM. Moreover, the selectivity ratio in data set [3] worked out at 1.7.

Turning to `COc1cc(NC(=S)Nc2cc(OC)c(OC)c(OC)c2)cc(OC)c1OC`, in the data set on RAW264.7, the pIC50 was 4.50. The compound further returned a CC50 at 24 h in data set [1] of 60.6 µM. The MIC50 in data set [2] turned out to be 64.2 µM. Besides, in data set [3], the selectivity ratio turned out to be 0.9.

On to `S=C(NCc1ccccc1)Nc1ccccn1`, for which the pIC50 in the data set on RAW264.7 was not above 3.70. In data set [1], this compound registered a CC50 at 24 h not below 200 µM. The MIC50 in data set [2] was determined as 17.7 µM. The selectivity ratio in data set [3] was more than 1.1.

In the data set on RAW264.7, `COc1ccc(NC(S)=Nc2ccccc2)cc1` gave a pIC50 not above 3.70. Besides, in data set [1], the CC50 at 24 h amounted to 43.3 µM. Moreover, the MIC50 in data set [2] amounted to 16.2 µM. The selectivity ratio in data set [3] was determined as 2.7.

Compound `CC(C)NC(=S)NCc1ccccc1` gave a negative-log IC50 (pIC50) with RAW264.7 not above 3.70. For the same compound, in data set [1], the CC50 at 24 h is not below 200 µM. Moreover, the MIC50 in data set [2] was determined as 57.8 µM. The selectivity ratio in data set [3] is more than 3.5.

In the data set on RAW264.7, `S=C(NCc1ccccc1)Nc1ccc2c(c1)OCO2` had a pIC50 of 4.61. The compound further showed a CC50 at 24 h in data set [1] not below 200 µM. In addition, in data set [2], the MIC50 is 132 µM. Further, the selectivity ratio in data set [3] was more than 1.5.

As for `COc1ccc(NC(=S)NCc2ccccc2)cc1`, the pIC50 with RAW264.7 was not above 3.70. This compound also gave a CC50 at 24 h in data set [1] of 105 µM. Also, the MIC50 in data set [2] stood at 7.9 µM. The selectivity ratio in data set [3] is 133.

`O=C(C1CCCO1)N1CCN(C(=S)Nc2ccccc2)CC1` (configuration not stated) had a pIC50 in the data set with RAW264.7 of 3.73. Moreover, the CC50 at 24 h in data set [1] is not below 200 µM. In addition, the MIC50 in data set [2] turned out to be 23.3 µM. For the same compound, in data set [3], the selectivity ratio was more than 8.6.

Compound `CC(C)NC(=S)NCCc1ccccc1` gave a pIC50 in the data set on RAW264.7 of 4.69. This compound displayed a CC50 at 24 h in data set [1] not below 200 µM. In addition, the MIC50 in data set [2] amounted to 108 µM. Besides, the selectivity ratio in data set [3] was more than 1.9.

`CCN(CC)C(S)=NCCc1ccccc1` gave a negative logarithm of the IC50 (pIC50) in the data set with RAW264.7 not above 3.70. The compound also came in with a CC50 at 24 h in data set [1] of 87.3 µM. Moreover, the MIC50 in data set [2] turned out to be 17.6 µM. In addition, the selectivity ratio in data set [3] came out at 4.9.

Consider `S=C(Nc1ccccc1)N1CCN(c2ccccn2)CC1`, for which the pIC50 with RAW264.7 was not above 3.70. Moreover, the CC50 at 24 h in data set [1] was not below 200 µM. Further, in data set [2], the MIC50 stood at 9.5 µM. Further, in data set [3], the selectivity ratio was more than 21.1.

`S=C(Nc1ccccc1)N1CCN(Cc2ccc3c(c2)OCO3)CC1` had a pIC50 in the data set on RAW264.7 of 3.94. Also, the CC50 at 24 h in data set [1] is not below 200 µM. Further, in data set [2], the MIC50 turned out to be 23.9 µM. For the same compound, the selectivity ratio in data set [3] was more than 8.4.

For the compound `CN(C[C@H](O)[C@@H](O)[C@H](O)[C@H](O)CO)C(=S)NCc1ccccc1`, in the data set on RAW264.7, the pIC50 is not above 3.70. Further, the 50% cytotoxic concentration (CC50) at 24 h in data set [1] came out at 104 µM. Further, in data set [2], the MIC50 stood at 134 µM. The selectivity ratio in data set [3] was found to be 0.8.

In turn, `O=C(NNC(=S)NCc1ccccc1)c1ccccc1` showed a pIC50 in the data set on RAW264.7 not above 3.70. Half-maximal cytotoxicity in data set [1] (CC50 at 24 h) was put at 42.1 µM. The MIC50 in data set [2] came to 33.7 µM. Further, the selectivity ratio in data set [3] is 1.3.

`S=C(NCc1ccccc1)N1CCN(c2ccccc2)CC1`: the pIC50 in the data set on RAW264.7 is 5.39. The compound further returned a CC50 at 24 h in data set [1] of 54.3 µM. Further, in data set [2], the MIC50 was found to be 27.9 µM. Also, in data set [3], the selectivity ratio was found to be 1.9.

In the data set on RAW264.7, `COc1cc(NC(=S)N2CCN(c3ccc(O)cc3)CC2)cc(OC)c1OC` had a pIC50 not above 3.70. In data set [1], this compound displayed a CC50 at 24 h of 17.3 µM. The MIC50 in data set [2] was found to be 80.9 µM. In addition, the selectivity ratio in data set [3] was found to be 0.2.

The compound `S=C(Nc1ccccc1)Nc1ccccn1` gave a pIC50 with RAW264.7 of 3.74. Further, in data set [1], the CC50 at 24 h was not below 200 µM. Moreover, the MIC50 in data set [2] was found to be 16.4 µM. The selectivity ratio in data set [3] was more than 12.2.

As for `CNC(=N)NCCC[C@H](N)C(=O)O` [TILARGININE ACETATE], the pIC50 in the data set with RAW264.7 was 4.11.

As a reminder, the pIC50 is the negative decadic logarithm of the IC50, by convention in mol/L. Read a low pIC50 as a high IC50. As a reminder, the CC50 is the concentration that lowers cell viability or growth by half. Read a low CC50 as greater toxicity to the cells. The MIC50 is an inhibitory concentration at the 50% level, which refers to growth in some studies and to a panel of isolates in others.
